Where “and” joins values, the source holds several entries; their conditions need not be identical. Equal values may be shown once. Read-outs that look alike come from different tables or passages of the source.
Assays:
[1] = Adverse events through Week 24; type: in vivo, HIV-1-infected adults
Method: (§1) Physical examinations, measurement of vital signs, and clinical laboratory evaluations were performed at Weeks 4, 8, 12, 16 and 24, and participants were closely monitored for AEs and SAEs throughout. AEs were classified according to MedDRA version 19.0. The severity and relationship to study drug was assessed by the local investigator.

[2] = Intensive PK, non-compartmental analysis and dose proportionality; type: in vivo, HIV-1-infected adults
Method: Due to the EFV component of the blinded drug regimens, administration of study drug required both morning and evening dosing,12 hours apart. […] All bioanalytical analyses were conducted by PPD® Laboratories using validated high-performance liquid chromatography/mass spectroscopy assays. Intensive plasma GSK3532795 concentrations were analyzed by non-compartmental analysis using the actual sampling times in WinNonlin version 6.3.0 (Pharsight, St. Louis, Missouri, USA). […] To assess the dose proportionality of GSK3532795 when co-administered with TDF/FTC, a mixed-effect model with log-transformed dose as the fixed effect and each participant as the random effect was used to fit a power model in SAS version 9.1.3.

[3] = tested on: HIV-1; details: ref AI468002, cited from earlier work
[4] = design: method as in protocol Section 1.4.1.2; details: 80 mg/kg/day, ref protocol Section 1.4.1.2, cited from earlier work
[5] = design: method as in Study AI468049; details: 180 mg MC tablet, preliminary, ref Study AI468049, cited from earlier work
[6] = tested on: HIV-1; details: 40% HS supplemented with additional human serum albumin; ref protocol Section 1.4.1.2; cited from earlier work
[7] = design: method as in Study AI468034; details: 120 mg MC tablet; ref Study AI468034; cited from earlier work
[8] = Clinical laboratory evaluations; type: in vivo, HIV-1-infected adults
Method: as §1

[9] = cited from earlier work
[10] = ref protocol Section 1.4.1.2, cited from earlier work
[11] = Population PK model (NONMEM); type: in vivo, HIV-1-infected adults
Method: Population PK analyses were conducted via non-linear mixed effects using non-linear mixed-effects modeling (NONMEM) software, version 7, level 2.0 (ICON Development Solutions, Hanover, Maryland, USA).[17] A summary of the population PK modeling methods and exposure response exploratory analyses for efficacy and safety is included in Supporting information.
Population pharmacokinetic (PK) analyses were conducted via nonlinear mixed-effects modelling using nonlinear mixed effects modeling (NONMEM) software, version 7, level 2.0 (ICON Development Solutions, Hanover, MD). Assessment of model adequacy and decision about increasing model complexity was driven by the data and guided by goodness-of-fit criteria, including visual inspection of diagnostic scatter plots (observed versus predicted concentration, residual/weighted residual versus predicted concentration or time and histograms of individual random effects, for example), successful convergence of the minimization routine, plausibility of parameter estimates, precision of parameter estimates, correlation between model parameter estimation errors < 0.95, and the Akaike information criterion (AIC), given the minimum objective function value and number of estimated parameters. An exploratory investigation of covariate-parameter relationships was undertaken as part of the population PK analysis. Predictive performance was assessed using stratified non-parametric bootstrapping (n=500). Following the construction of a suitable PK model, individual-specific steady-state exposure metrics were derived for exposure-response investigation. An exploratory plotting analysis was performed to investigate exposure–response relationships for efficacy and safety endpoints, where endpoints including fraction of participants with <40 c/mL at Week 24 (modified intent-to-treat population) and percentage of participants with Grade 1, 2, 3, and 4 gastrointestinal events (adverse events >7 days) were analysed as a function of exposure quantiles.

[12] = design: method as in protocol Section 1.4.1.2; details: 100% human serum; ref protocol Section 1.4.1.2; listed as BMS-955176; cited from earlier work
[13] = tested on: CYP3A4; design: method as in protocol Section 1.4.1.2; details: ref protocol Section 1.4.1.2; cited from earlier work
[14] = GSK3532795: range across 60, 120, 180 mg arms, EFV 600 mg
[15] = GSK3532795 arms pooled, EFV 600 mg, abstract
[16] = Part A, clade B, 10 days monotherapy, 5 mg

C=C(C)[C@@H]1CC[C@]2(NCCN3CCS(=O)(=O)CC3)CC[C@]3(C)[C@H](CC[C@@H]4[C@@]5(C)CC=C(c6ccc(C(=O)O)cc6)C(C)(C)[C@@H]5CC[C@]43C)[C@@H]12 [GSK3532795]
Mean time to onset of first diarrhea event ([1]; 60 mg arm): 48.4 days
Mean time to onset of first diarrhea event ([1]; 120 mg arm): 19.9 days
Mean duration of first diarrhea event ([1]; 120 mg arm (longest)): 104.2 days
Mean time to onset of first diarrhea event ([1]; 180 mg arm): 11.3 days
SAE considered related to study drug ([1]; GSK3532795 120 mg (no action taken), EFV (led to discontinuation)): Grade 3 abdominal pain
Grade 1–4-related abdominal pain [1, 14]: 6–16%
Grade 1–4-related diarrhea [1, 14]: 27–51%
Adverse events leading to discontinuation [1, 15]: 5%
Serious adverse events [1, 15]: 5%
Frequency of Grade 1–4-related AEs ([1]; GSK3532795 arms pooled, EFV 600 mg, through Week 24): 53%
Increase in systemic exposure with dose ([2]; dose range 60–180 mg, with food and TDF/FTC): less than dose-proportional
Time at which median steady-state plasma concentrations reached peak ([2]; multiple doses 60, 120 or 180 mg with food and TDF/FTC): 4–5 hours post-dose
Maximum decline log10 HIV-1 RNA, max ([3]; Part A, 10 mg): -1.76 Log10
Maximum decline log10 HIV-1 RNA, mean ([3]; Part A, 10 mg): -1.05 Log10
Maximum decline log10 HIV-1 RNA, median ([3]; Part A, 10 mg): -0.976 Log10
Maximum decline log10 HIV-1 RNA, min ([3]; Part A, 10 mg): -0.64 Log10
Maximum decline log10 HIV-1 RNA, max ([3]; Part A, 20 mg): -2.12 Log10
Maximum decline log10 HIV-1 RNA, mean ([3]; Part A, 20 mg): -1.17 Log10
Maximum decline log10 HIV-1 RNA, median ([3]; Part A, 20 mg): -1.115 Log10
Maximum decline log10 HIV-1 RNA, min ([3]; Part A, 20 mg): -0.13 Log10
Maximum decline log10 HIV-1 RNA, max ([3]; Part A, 40 mg): -1.88 Log10
Maximum decline log10 HIV-1 RNA, mean ([3]; Part A, 40 mg): -1.55 Log10
Maximum decline log10 HIV-1 RNA, median ([3]; Part A, 40 mg): -1.701 Log10
Maximum decline log10 HIV-1 RNA, min ([3]; Part A, 40 mg): -0.93 Log10
Maximum decline log10 HIV-1 RNA, max ([3]; Part A, 80 mg): -1.82 Log10
Maximum decline log10 HIV-1 RNA, mean ([3]; Part A, 80 mg): -1.52 Log10
Maximum decline log10 HIV-1 RNA, median ([3]; Part A, 80 mg): -1.555 Log10
Maximum decline log10 HIV-1 RNA, min ([3]; Part A, 80 mg): -1.04 Log10
Maximum decline log10 HIV-1 RNA, max ([3]; Part A, 120 mg): -2.07 Log10
Maximum decline log10 HIV-1 RNA, mean ([3]; Part A, 120 mg): -1.53 Log10
Maximum decline log10 HIV-1 RNA, median ([3]; Part A, 120 mg): -1.654 Log10
Maximum decline log10 HIV-1 RNA, min ([3]; Part A, 120 mg): -0.83 Log10
Maximum decline log10 HIV-1 RNA, max [3, 16]: -0.78 Log10
Maximum decline log10 HIV-1 RNA, mean [3, 16]: -0.49 Log10
Maximum decline log10 HIV-1 RNA, median [3, 16]: -0.498 Log10
Maximum decline log10 HIV-1 RNA, min [3, 16]: -0.22 Log10
Maximum decline log10 HIV-1 RNA, max ([3]; Part C, clade C, 40 mg): -2.03 Log10
Maximum decline log10 HIV-1 RNA, median ([3]; Part C, clade C, 40 mg): -1.285 Log10
Maximum decline log10 HIV-1 RNA, min ([3]; Part C, clade C, 40 mg): -1.04 Log10
Maximum decline log10 HIV-1 RNA, mean ([3]; Part C, clade C, 10 days monotherapy, 40 mg): -1.5 Log10
Safety in Phase 2a ([3]; alone or with ATV ± RTV for 10-28 days, preliminary): no deaths, SAEs, or AEs leading to discontinuation
Median maximal reductions in HIV-1 RNA ([3]; doses 40 mg SDD once daily and above, clade B and clade C): > 1 log10
AUC [4]: 3.26 gh/mL
Developmental toxicity classification ([4]; rabbits): not a developmental toxicant
Increase in Cmax relative to fasted ([5]; all three meal types): approximately 2 fold
Increase in AUC relative to fasted ([5]; high fat meal): 2.5 fold
Increase in AUC relative to fasted ([5]; standard meal): 2.1 fold
Reduction of antiviral activity [6]: approximately 4 fold
Bioavailability lower relative to 80 mg SDD suspension [7]: approximately 23%
Impact of high fat meal on Cmax [7]: negligible impact
Increase in C24 with a high fat meal relative to fasted [7]: approximately 70%
Grade 3 low potassium ([8]; 60 mg arm): one participant
Mean total cholesterol, direction of change ([8]; 120 mg arm, baseline to Week 24): decreased
Grade 3 laboratory abnormalities in triglycerides and creatinine clearance (CrCl) ([8]; 180 mg arm): one participant each
Grade 3 liver chemistry abnormalities ([8]; GSK3532795 arms): three participants
Mean decrease in triglyceride levels ([8]; range across all GSK3532795 arms, baseline to Week 24): 5.0 to 12.9 mg/dL
AUC at developmental NOAEL ([9]; 30 mg/kg/day, ref protocol Section 1.4.1.2): 114 gh/mL
Developmental NOAEL ([9]; rat, in vivo): 30 mg/kg/day
Developmental toxicity classification ([9]; rats, ref protocol Section 1.4.1.2): not a selective developmental toxicant
AUC at NOAEL ([10]; 1 mg/kg/day): 64.9 gh/mL
AUC at lowest dose with effects ([10]; 3 mg/kg/day): 135 gh/mL
NOAEL ([10]; dog 9-month, stomach histologic changes): 1 mg/kg/day
Reduction in clearance in African-American participants ([11]; compared with White participants): 23%
Additive residual error ([11]; final population PK model): 37400
First-order absorption rate (Ka), estimate ([11]; final population PK model): 0.0236 h⁻¹
Interindividual variance of CL ([11]; final population PK model): 0.0610
Interindividual variance of Ka ([11]; final population PK model): 0.164
Interindividual variance of V ([11]; final population PK model): 0.462
Interoccasion variance of F1 ([11]; final population PK model): 0.0512
Proportional residual error ([11]; final population PK model): 0.0165
clearance ([11]; human, in vivo, oral, final population PK model, read-out: Clearance (CL), estimate (converted)): 37.3 mL/min
Vd ([11]; human, in vivo, oral, final population PK model, read-out: Volume of distribution (V), estimate): 5.58 L
Increase in clearance in participants with Grade ≥2 diarrhea ([11]; relative to no diarrhea): 18%
Protein binding [12]: 86% and 86.1%
IC50 [13]: 32 µM

Reference: paper PMC6198970, “Safety, efficacy, and dose response of the maturation inhibitor GSK3532795 (formerly known as BMS-955176) plus tenofovir/emtricitabine once daily in treatment-naive HIV-1-infected adults: Week 24 primary analysis from a randomized Phase IIb trial” (PLoS ONE, 2018)
